Test results: patent US20250161312A1, “A METHOD FOR THE TREATMENT OF CHEMOTHERAPEUTIC DRUG-INDUCED NEPHROTOXICITY” (INSTITUT NATIONAL DE LA SANTÉ ET DE LA RECHERCHE MÉDICALE, priority 2022, published 2025)

Key:
[1] = system: C57BL6/J mice; experiment: Acute cisplatin-induced kidney injury model; type: in vivo
Method: Animal procedures were performed in 8 to 10 weeks old male C57B16/J mice (Janvier Labs). Mice were fed a laboratory standard diet with water and food ad libitum and were kept under constant environmental conditions with a 12-hour light-dark cycle. […] Three days after this single injection, animals were sacrificed by cervical dislocation (FIG. 1A).
Reverse transcription was performed on 1 μg of RNA using high-capacity cDNA reverse transcription kit (Thermo Fisher), according the manufacturer's recommendation. Real time PCR was performed on a StepOne device using Taqman Gene Expression Master Mix (Thermo Fisher), following manufacturer's recommendations. Expression levels of the following genes were evaluated using comparative CT method (2-deltaCT): Neutrophil Gelatinase Associated Lipocalin (NGAL, Assay IDs Hs00194353_ml and Mm01324470_m1), Kidney Injury Molecule-1 (KIM-1, Assay ID Hs00273334_ml and Mm00506686_m1), Tumor Necrosis Factor alpha (TNFα, Assay ID Hs00174128_m1 and Mm00443258_m1), Interleukin-6 (I16, Assay ID Hs00174131_m1 and Mm00446190_m1), Adora2A Receptor (A2AR, Assay ID Hs00169123_m1 and Mm00802075_m1), Bcl2 associated X (Bax, Assay ID Hs00180269_m1 and Mm00432051_m1), B cell lymphoma 2 (Bcl2, Assay ID Hs00608023_m1 and Mm00477631_m1), Copper transporter receptor 1 (CTR1, Assay ID Hs00741015_m1 and Mm00612987_m1), Organic cation transporter 2 (OCT2, Assay ID Hs00533907 m1 and Mm00457295_m1), ATPase 7A (ATP7A, Assay ID Hs00163707_m1 and Mm00437663_m1), ATPase 7B (ATP7B, Assay ID Hs00163739_m1 and Mm00599675_m1), Multidrug and toxin extrusion ½ (MATE1/2, Assay ID Hs00979028 m1/Hs00945652_m1 and Assay ID Mm00840361_m1/Mm02601002_m1), ATP Binding Cassette Subfamily C Member 2 (Abcc2, Assay ID Hs00166123_m1 and Mm00496899_m1) instructions. Transcript levels of PPIA (human Hs99999904_mland mouse sample Mm02342430_m1) were used as endogenous control.

[2] = system: C57BL6/J mice; experiment: Sub-chronic cisplatin-induced kidney injury model; type: in vivo
Method: FIG. 1. Schematic representation of the different animal procedures. (A) Acute cisplatin-induced kidney injury. […] (B) Sub-chronic cisplatin-induced kidney injury. […] (C) KW-6002 administration schedule in the acute model. […] (D) KW-6002 administration schedule in the sub-chronic model.
Animal experiments were adapted from 63-64. Animal procedures were performed in 8 to 10 weeks old male C57B16/J mice (Janvier Labs). Mice were fed a laboratory standard diet with water and food ad libitum and were kept under constant environmental conditions with a 12-hour light-dark cycle. Istradefylline (KW-6002; Tocris) was dissolved in a carrier solution consisting in 15% DMSO, 15% cremophor (Sigma), 70% saline solution (vehicle). Cisplatin (Accord Healthcare) was dissolved in saline solution. […] Three days after this single injection, animals were sacrificed by cervical dislocation (FIG. 1A).
Prior sacrifice by cervical dislocation, retro-orbital blood samples were collected in heparinized tubes and centrifuged for 10 min at 2000 rpm at room temperature. Renal function was assessed by Blood urea nitrogen (BUN) measurement using a AU480 Chemistry Analyzer (Beckman Coulter). At the time of sacrifice, kidneys or LLC1 tumors were harvested and stored in either “RNA later” solution (Thermo Fisher), 4% neutral buffered formalin or snap-frozen in liquid nitrogen.
Formalin-fixed and paraffin-embedded sections (3 μm thick) were stained with Hematoxylin and Eosin (Sigma Aldrich) or Periodic Acid-Schiff (Sigma-Aldrich). Slices were scored by a nephropathologist in a blinded manner. A kidney injury score grading scale from 0 to 5 was used to assess the severity of the injury as follow: 0=no lesions, 1=minimal injury characterized by occurrence of necrosis and debris; 2=mild injury with single cell necrosis, pyknotic cells, and apoptosis; 3=moderate injury characterized by tubular distension, vacuolation, and some cellular debris, 4=severe injury with occasional hyaline casts observed, patchy epithelial necrosis in all segments, loss of epithelial lining; and 5=very severe injury characterized by extensive tubular epithelial necrosis in all segments, loss of epithelial layer from many tubules widespread intraluminal cellular debris, and frequent hyaline casts particularly prominent in the medullary region (67).
Total RNA from kidney samples was extracted with phenol/chloroform and subsequently precipitated in isopropanol as described previously (71). Total RNA from cultured renal cells was extracted using RNeasy Mini kit (Qiagen) following manufacturer's recommendations.
Reverse transcription was performed on 1 μg of RNA using high-capacity cDNA reverse transcription kit (Thermo Fisher), according the manufacturer's recommendation. Real time PCR was performed on a StepOne device using Taqman Gene Expression Master Mix (Thermo Fisher), following manufacturer's recommendations. […]

[3] = system: RPTEC/hTERT1 cells; experiment: Cell efflux (EFLUXX-ID) in RPTEC/hTERT1 cells; type: cell-based, human; conditions: cisplatin-treated cells, flow cytometry, FIG. 4C
Method: FIG. 4. […] (A) Platinum quantification (n=12-20/group) and relative expression of influx transporters (CTR1 and OCT2) and efflux transporters (ATP7B, MATE1, MATE2 and ABCC2; n=10-12/group) in kidney. (B) Platinum quantification (n=12-20/group) and relative expression of influx transporters (CTR1) and efflux transporters (ATP7B, MATE1, and ABCC2; n=5-6/group) in tumors. […] Results are the mean±SEM (n=3 independent experiments)
The basic cell efflux function was assessed using an EFLUXX-ID Green Multidrug Resistance Assay Kit (ENZO Life Sciences). Briefly, 2.5×10^5 cells/condition were collected, washed with PBS, and incubated with the EFLUXX-ID Green Detection Reagent for 30 minutes at 37° C., and then efflux was measured immediately by flow cytometry (CytoFLEX LX, Beckman Coulter). All experiments were performed in triplicate, with the measurement of 10,000 individual cells. Data were analyzed using Kaluza Analysis Software (Beckman Coulter).

[4] = system: RPTEC/hTERT cells; experiment: Cell concentrations of platinum; type: cell-based, human; conditions: cisplatin 50 μM, KW-6002 25 μM, 48 hours
Method: Tissues (35 mg) and cell pellets were first mineralized with hydrochloric acid (30% Suprapur, Merck) or nitric acid (69.5%, Carlo Erba), respectively. Analysis of tissue samples was performed by Graphite Furnace Atomic Absorption Spectrometry (GF-AAS) using an Aanalyst 800 (Perkin Elmer)., while cell samples analysis was performed by Inductively Coupled Plasma Mass Spectrometry (ICP-MS) using an ICAP-Qc (Thermo Scientific). Platinum concentration was finally normalized to the accurately measured kidney mass, or to the number of cells previously assessed.

[5] = system: LLC1 cells; experiment: γH2AX immunostaining in LLC1 cells; type: cell-based, mouse; conditions: 2 μM cisplatin, 10 nM KW-6002, 6 hours, FIG. 7B
Method: FIG. 7. […] Caspase 3/-7 activity (n=3 independent experiments) (A) and the number of γH2AX nuclear foci (n=36-63 nuclei/group) (B) were determined. […] Results are expressed as the mean±SEM (n=3 independent experiments). (E) Tail moment was assessed by comet assay. A total of 50 cells per condition were analyzed. *** P<0.001; 1-way ANOVA followed by Tukey's post hoc test. […] (I) KW6002 increased yH2AX expression in tumors from mice of the LLC1 syngeneic model. Quantification of nuclear yH2AX expression.
Cells were fixed with 4% paraformaldehyde, permeabilized with DPBS/0.1% Triton X100 and incubated with γH2AX (Ser139) antibody (1/400; #9718, Cell Signaling Technology) and then, Alexa Fluor 488 secondary antibody (1/200; Life Technologies). Samples were examined on an immunofluorescence microscope (Leica™ DMI8) and γH2AX nuclear foci were counted.

## CCn1c(=O)c2c(nc(/C=C/c3ccc(OC)c(OC)c3)n2C)n(CC)c1=O [KW-6002, 8-[(E)-2-(3,4-dimethoxyphenyl)vinyl]-1,3-diethyl-7-methyl-3,7-dihydro-1H-purine-2,6-dione]
[1]; A model, FIG. 2B
  histological lesions (histological score of renal injury): less severe histological lesions
[1]; A model, kidney
  mRNA levels of I16, change vs. cisplatin: −73.8±5.3%
  mRNA levels of Tnfα, change: −36.0±4.3%
[1]; A model, kidney mRNA
  reduction of KIM-1 expression vs. cisplatin: −95.2±0.7%
  reduction of NGAL expression vs. cisplatin: −55.5±5.9%
[1]; A model: cisplatin 10 mg/kg single i.p., KW-6002 3 mg/kg i.p. daily day-1 to day 2
  reduction of BUN vs. cisplatin: −42.9±7.4%
[2]; SC model, FIG. 2H
  histological lesions (histological score of renal injury): less severe histological lesions
[2]; SC model, FIG. 2K, figure not given
  mRNA levels of Tnfα: lower mRNA levels of Tnfα
[2]; SC model, kidney
  mRNA levels of I16, change vs. cisplatin: −77.5±5.6%
[2]; SC model, kidney mRNA
  reduction of KIM-1 expression vs. cisplatin: −79.5±3.8%
  reduction of NGAL expression vs. cisplatin: −82.9±1.4%
[2]; SC model: cisplatin 3 mg/kg i.p. six days, KW-6002 3 mg/kg i.p. daily day-5 to day 7
  reduction of BUN vs. cisplatin: −70.2±5.1%
[2]; in vivo, subchronic model, FIG. 6D
  cisplatin-induced increase in expression of Nrf2: normalized
[2]; in vivo, subchronic model, FIG. 6E
  cisplatin-induced increase in expression of HO1: normalized
[2]; independent experiment, animals of FIGS. 2G-2L
  effect on platinum accumulation in kidneys: replicated
[3]
  efflux: strongly enhanced
[4]
  accumulation of cisplatin (platinum) in cells: limits the accumulation of cisplatin
[5]
  DNA damage: γH2AX nuclear foci: increased number of H2AX+ cells
